Where two headings read alike, the source gives them in different places.
What was measured:
[1] = tested on: induced liver fibrosis; conditions: cited from earlier work
[2] = Cytotoxicity MTT assay; type: cell-based; conditions: human, HepG2 cells (hepatocellular carcinoma cell line), HepG2, MTT, mean ± SEM, n = 3
Description: (§1) MTT assay was used to estimate cell viability potential for 24 h using hepatocellular carcinoma cell line (HepG2) as previously reported. Calculation of the relative cell viability percentage was performed following the equation: % Relative cell viability = (Absorbance of treated samples/Absorbance of untreated sample) × 100.

[3] = tested on: healthy adult Sprague–Dawley male rats; experiment: In vivo toxicity study, 6 weeks oral daily; set-up: species or system rat; conditions: plasma, oral daily 6 weeks, dose equimolar to celecoxib 20 mg/kg; mean ± SEM, n = 6
Description: (§2) Ninety-eight healthy adult Sprague–Dawley male rats with an average weight of 150 ± 20 g were obtained from the animal facility at the Institute of Graduate Studies and Research, Alexandria University, Egypt. Animals were provided with a balanced commercial diet ad libitum and adapted for two weeks prior to the experiment. All animals were sacrificed under IP thiopental anesthesia (50 mg/kg) 48 h after the last treatment.
Blood samples were collected using cardiac puncture in Li-heparin tubes and centrifuged at 2000× g for 10 min to obtain the plasma. Then, the determination of hepatic biomarkers and renal profile was performed according to kits purchased from Roche Diagnostics, USA, using a Roche/Hitachi analyzer (cobas c 311, cobas c 501/502). […]

[4] = tested on: induced liver fibrosis; conditions: injected subcutaneously 3.6 µL/day, mice models; cited from earlier work
[5] = biological target: T1, COX-1 (Ovis aries, UniProt P05979); experiment: In vitro COX-1 inhibition assay (Cayman colorimetric COX (ovine) inhibitor screening kit); type: biochemical; conditions: mean ± SEM, n = 3
T1 construct: purchased Cayman Chemicals, Ann Arbor, MI, USA 560131
T1 sequence (P05979 25-600): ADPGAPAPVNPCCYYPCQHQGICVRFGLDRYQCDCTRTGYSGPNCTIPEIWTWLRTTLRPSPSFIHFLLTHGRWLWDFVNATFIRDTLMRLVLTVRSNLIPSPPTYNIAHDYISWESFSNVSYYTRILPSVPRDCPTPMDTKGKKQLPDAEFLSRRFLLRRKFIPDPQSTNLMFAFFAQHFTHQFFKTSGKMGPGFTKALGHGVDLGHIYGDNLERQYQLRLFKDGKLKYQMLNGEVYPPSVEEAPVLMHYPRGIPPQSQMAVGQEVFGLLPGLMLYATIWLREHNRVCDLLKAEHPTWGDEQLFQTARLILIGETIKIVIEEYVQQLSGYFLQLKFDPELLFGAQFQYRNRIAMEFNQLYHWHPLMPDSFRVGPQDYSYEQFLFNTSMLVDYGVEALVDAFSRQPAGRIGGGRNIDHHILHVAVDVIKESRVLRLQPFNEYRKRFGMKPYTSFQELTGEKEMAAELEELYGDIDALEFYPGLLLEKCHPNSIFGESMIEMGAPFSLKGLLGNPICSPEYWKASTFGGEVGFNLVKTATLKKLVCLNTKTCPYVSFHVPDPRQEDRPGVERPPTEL

[6] = tested on: hepatocellular carcinoma cell line (HepG2); experiment: Cytotoxicity MTT assay; type: cell-based; conditions: human, 24 h
Description: as §1

[7] = tested on: CCl4-induced liver fibrosis in male Sprague–Dawley rats; experiment: Therapeutic model treated after induction of CCl4 liver fibrosis; type: in vivo, rat; conditions: for redox status (MDA, GSH, SOD in liver homogenate): oral daily weeks 7-12 after CCl4, compared to Clx
Description: as §2
Blood samples were collected using cardiac puncture in Li-heparin tubes and centrifuged at 2000× g for 10 min to obtain the plasma. Then, the determination of hepatic biomarkers and renal profile was performed according to kits purchased from Roche Diagnostics, USA, using a Roche/Hitachi analyzer (cobas c 311, cobas c 501/502).
Rats were sacrificed by exsanguination following blood sample collection. The livers were excised, rinsed with cold saline, and dried on filter paper. A portion of each excised liver was put in 10% formalin solution, and then embedded in paraffin and sliced into 4–5 µm sections for histological evaluation. Another part of each liver was snap frozen and stored at −80 °C for later analyses of markers. The remaining tissue was stored in RNAlater solution (Qiagen, Germany, Mat. No. 1018087, lot no. 148052467) for qRT-PCR.
Sections from formalin-fixed paraffin-embedded (FFPE) liver tissues were stained with hematoxylin and eosin and Masson trichrome stain to evaluate liver necrosis and fibrosis. The scores of liver fibrosis degree were evaluated according to a 4-tiered scoring system following the criteria: score 0 = absent fibrosis where scanty fibrous tissue is seen only in portal tracts, score 1 = minimal fibrosis (expanded portal tracts with short fibrous septea may be extending from portal tracts), score 2 = mild fibrosis (long fibrous septea is extending from portal tracts with occasional bridging to other portal tracts or to central veins), score 3 = moderate fibrosis (frequent portal to portal or to central vein bridging with infrequent pseudolobule formation), and score 4 = severe fibrosis (nodular liver with evident pseudolobule formation). For collagen morphological quantification, multiple random pictures of the trichrome-stained section were taken using a microscope-adopted camera at ×400 power. The collagen-positive area stained in blue was evaluated using ImageJ software and then calculated as a percentage of the total field area. At least eight fields were assessed and the mean value was then calculated.
Four-micron sections were cut and mounted on positively charged slides. They were stained with smooth muscle actin (SMA) monoclonal primary antibody (Dako, Denmark; CodeIR611, lot no. 41247585) using Dako auto Stainer (autostainer Link 48). A positive control (leiomyoma) was used in each run. Immune-stained slides were assessed, and ten high power fields of each section were photographed using a Leica camera. Photos were analyzed using ImageJ software to record the immune-positive area (seen as brown staining) in each photo. Then, the positively stained area percentage was calculated as a mean of the 10 examined photos for each rat.
Protein content determination was performed according to Bradford using bovine serum albumin as a standard. A volume of 5 μL of each sample and standard was first added to each well then 250 μL of Ready-To-Use Coomassie Blue G-250 Based Reagent (Thermo Scientific, Waltham, MA, USA; Prod no. 23200, lot no. UE285518) was added. The microplate was put on the shaker for 30 s and then incubated for 10 min at RT. Absorbance was read at […] using a microplate reader.
The malondialdehyde (MDA) level was estimated using the thiobarbituric acid method as previously described. Liver glutathione was estimated using a colorimetric kit (Biodiagnostics, Egypt; catalog no. GR 25 11) according to the method of Beutler et al.. […]

[8] = liver tissue homogenate, after CCl4

| IC50 [5] [µM] | Compound | IC50 at 24 h [2] [µM] | ALP [3] [U/L] | ALT [3] [U/L] | AST [3] [U/L] | Albumin [3] [g/dL] | Cholesterol [3] [mg/dL] | Creatinine [3] [mg/dL] | Total Bilirubin [3] [mg/dL] | Triglycerides [3] [mg/dL] | Safety Index (SI) [6] | redox status (MDA, GSH, SOD in liver homogenate) [7] | further results |
| --- | --- | --- | --- | --- | --- | --- | --- | --- | --- | --- | --- | --- | --- |
|  | Cc1ccc(-c2cc(C(F)(F)F)nn2-c2ccc(S(N)(=O)=O)cc2)cc1 [Celecoxib, celecoxib, reference compound] | 144.6 ± 1.08 | 138.66 ± 13.40 | 42 ± 3.33 | 147.5 ± 18.65 | 3.73 ± 0.06 | 52.5 ± 2.21 | 0.35 ± 0.01 | 0.084 ± 0.006 | 53 ± 7.11 |  |  | effect on induced liver fibrosis ([1]; 15 mg/kg/day orally, rat models): no effect; effect on induced liver fibrosis ([1]; 20 mg/kg/day orally): potentiality in the attenuation of induced liver fibrosis; effect on induced liver fibrosis [4]: no effect |
| 7.5 ± 0.09 | COc1ccc(/C=N/Nc2ncnc3c2cnn3-c2ccccc2)cc1 [Compound D1] | 370.7 ± 0.089 | 159.5 ± 7.48 | 49.66 ± 4.99 | 139.5 ± 7.78 | 3.9 ± 0.12 | 71.66 ± 7 | 0.36 ± 0.03 | 0.073 ± 0.004 | 67 ± 5.42 | 2745.9 | no significance difference to Clx treatment |  |
| 8.5 ± 0.04 | COc1ccc(/C=N/Nc2ncnc3c2cnn3-c2ccccc2)cc1OC [Compound D2] | 344.95 ± 0.3 | 154.16 ± 10.92 | 39.66 ± 2.13 |  | 3.78 ± 0.12 | 67 ± 6.47 | 0.37 ± 0.01 | 0.071 ± 0.01 | 61.83 ± 7.11 | 3349.0 | best enhancement | hepatic mRNA expression of MMP-9 ([7]; after CCl4 and treatment, vs model and control): more significant reduction, reaching a low MMP-9 level near that of the control group; reduction of TGF-β compared to celecoxib ([7]; hepatic mRNA, after CCl4 and treatment): more significant than celecoxib; proinflammatory and profibrogenic cytokines (TNF-α protein, TGF-β and IL-6 gene expression) ([7]; liver, after CCl4 and treatment): decreased considerably reaching the control level; severity of fibrosis (architecture, fibrotic score, collagen- and α-SMA-positive areas, α-SMA and COL1A1 mRNA) ([7]; oral daily weeks 7-12 after 6 weeks CCl4, vs model and Clx group): best effect; restoration of increased plasma ALT and AST ([7]; plasma, after CCl4 and treatment): more significant |
| 11.5 ± 0.05 | COc1cc(/C=N/Nc2ncnc3c2cnn3-c2ccccc2)cc(OC)c1OC [Compound D3] | 356.5 ± 2.9 | 123.16 ± 4.12 | 37.83 ± 2.45 | 147.33 ± 9.81 | 3.86 ± 0.12 | 62.33 ± 1.68 | 0.42 ± 0.02 | 0.076 ± 0.006 | 64 ± 8.01 | 4042.7 |  | MDA level compared to Clx [7, 8]: significantly better that Clx; SOD compared to Clx [7, 8]: equal to it; reduced GSH compared to Clx [7, 8]: worse |

Source: PMC10045301, “The Role of Pyrazolo[3,4-d]pyrimidine-Based Kinase Inhibitors in The Attenuation of CCl4-Induced Liver Fibrosis in Rats” (Antioxidants, 2023)
